Results from ChEMBL document CHEMBL4152336, “Optimization of the first small-molecule relaxin/insulin-like family peptide receptor (RXFP1) agonists: Activation results in an antifibrotic gene expression profile” (Eur J Med Chem, 2018).
In brackets after ≈: the same amount, converted by molar mass. Activity calls are given as the source filed them. No cut-off for these calls is given here.

How the values were obtained:
[1] = tested on: Mus musculus; assay: Toxicity in C57/BL6 mouse assessed as body weight at 90 mg/kg, po treated for 5 days measured at day 10 post last dose (reference value: 20.7 +/- 2.6 g); assay type: organism-based; conditions: in vivo, 120 h
[2] = tested on: Mus musculus; assay: Toxicity in C57/BL6 mouse assessed as body weight at 300 mg/kg, po treated for 5 days measured at day 2 post last dose (reference value: 19.8 +/- 2.3 g); assay type: organism-based; conditions: in vivo, 120 h
[3] = organism: Homo sapiens; assay: Down regulation of TGFB1 gene expression in human HSC at 5 uM after 24 to 72 hrs by RT-qPCR analysis; assay type: functional
[4] = tested on: Mus musculus; assay: Toxicity in C57/BL6 mouse at 3 to 30 mg/kg, po; assay type: organism-based; conditions: in vivo
[5] = tested on: Mus musculus; assay: Toxicity in C57/BL6 mouse assessed as body weight at 3000 mg/kg, po treated for 5 days measured at day 8 post last dose (reference value: 20.6 +/- 2.8 g); assay type: organism-based; conditions: in vivo, 120 h
[6] = tested on: Mus musculus; assay: Toxicity in C57/BL6 mouse assessed as abnormal behavior at 3 to 30 mg/kg, po; assay type: organism-based; conditions: in vivo
[7] = tested on: Mus musculus; assay: Toxicity in C57/BL6 mouse assessed as body weight at 300 mg/kg, po treated for 5 days measured at day 5 post last dose (reference value: 20.3 +/- 2.8 g); assay type: organism-based; conditions: in vivo, 120 h
[8] = Drug level in C57/BL6 mouse heart at 30 mg/kg, po after 0.17 hrs; assay type: ADME, organism-based; conditions: in vivo
[9] = tested on: Mus musculus; assay: Toxicity in C57/BL6 mouse assessed as body weight at 3000 mg/kg, po treated for 5 days measured at day 5 post last dose (reference value: 20.3 +/- 2.8 g); assay type: organism-based; conditions: in vivo, 120 h
[10] = organism: Homo sapiens; assay: Down regulation of COL1A1 gene expression in human HSC at 5 uM after 24 to 72 hrs by RT-qPCR analysis; assay type: functional
[11] = Drug level in C57/BL6 mouse heart at 3 mg/kg, iv after 0.08 hrs; assay type: ADME, organism-based; conditions: in vivo
[12] = organism: Homo sapiens; assay: Down regulation of ACTA2 gene expression in human HSC at 5 uM after 24 to 72 hrs by RT-qPCR analysis; assay type: functional
[13] = Drug level in C57/BL6 mouse heart at 30 mg/kg, po after 1 hr; assay type: ADME, organism-based; conditions: in vivo
[14] = Drug level in C57/BL6 mouse heart at 3 mg/kg, iv after 2 hrs; assay type: ADME, organism-based; conditions: in vivo
[15] = tested on: Mus musculus; assay: Toxicity in C57/BL6 mouse assessed as body weight at 300 mg/kg, po treated for 5 days measured at day 3 post last dose (reference value: 19.8 +/- 2.5 g); assay type: organism-based; conditions: in vivo, 120 h
[16] = Drug level in C57/BL6 mouse heart at 30 mg/kg, po after 3 hrs; assay type: ADME, organism-based; conditions: in vivo
[17] = Aqueous kinetic solubility of the compound in PBS by shake-flask method; assay type: physicochemical; conditions: PBS; read-out: Kinetic_solubility
[18] = tested on: Mus musculus; assay: Toxicity in C57/BL6 mouse assessed as body weight at 300 mg/kg, po treated for 5 days measured at day 7 post last dose (reference value: 20.6 +/- 2.9 g); assay type: organism-based; conditions: in vivo, 120 h
[19] = tested on: Mus musculus; assay: Toxicity in C57/BL6 mouse assessed as body weight at 300 mg/kg, po treated for 5 days measured at day 1 post last dose (reference value: 20.3 +/- 2.6 g); assay type: organism-based; conditions: in vivo, 120 h
[20] = Drug level in C57/BL6 mouse heart at 3 mg/kg, iv after 1 hr; assay type: ADME, organism-based; conditions: in vivo
[21] = tested on: Mus musculus; assay: Toxicity in C57/BL6 mouse assessed as abnormal behavior at 3 to 30 mg/kg, iv; assay type: organism-based; conditions: in vivo
[22] = organism: Homo sapiens; assay: Upregulation of MMP1 gene expression in human HSC at 5 uM after 24 to 72 hrs by RT-qPCR analysis; assay type: functional
[23] = tested on: Mus musculus; assay: Toxicity in C57/BL6 mouse assessed as body weight at 90 mg/kg, po treated for 5 days measured at day 1 post last dose (reference value: 20.3 +/- 2.6 g); assay type: organism-based; conditions: in vivo, 120 h
[24] = organism: Homo sapiens; assay: Down regulation of CTGF gene expression in human HSC at 5 uM after 24 to 72 hrs by RT-qPCR analysis; assay type: functional
[25] = tested on: Mus musculus; assay: Toxicity in C57/BL6 mouse assessed as body weight at 3000 mg/kg, po treated for 5 days measured at day 4 post last dose (reference value: 20.1 +/- 2.8 g); assay type: organism-based; conditions: in vivo, 120 h
[26] = Drug level in C57/BL6 mouse heart at 30 mg/kg, po after 5 hrs; assay type: ADME, organism-based; conditions: in vivo
[27] = Drug level in C57/BL6 mouse heart at 3 mg/kg, iv after 7 hrs; assay type: ADME, organism-based; conditions: in vivo
[28] = tested on: Mus musculus; assay: Toxicity in C57/BL6 mouse assessed as body weight at 3000 mg/kg, po treated for 5 days measured at day 9 post last dose (reference value: 20.7 +/- 2.9 g); assay type: organism-based; conditions: in vivo, 120 h
[29] = Drug level in C57/BL6 mouse heart at 3 mg/kg, iv after 0.5 hrs; assay type: ADME, organism-based; conditions: in vivo
[30] = tested on: Mus musculus; assay: Toxicity in C57/BL6 mouse assessed as body weight at 90 mg/kg, po treated for 5 days measured at day 4 post last dose (reference value: 20.1 +/- 2.8 g); assay type: organism-based; conditions: in vivo, 120 h
[31] = tested on: Mus musculus; assay: Toxicity in C57/BL6 mouse at 3 to 30 mg/kg, iv; assay type: organism-based; conditions: in vivo
[32] = tested on: Mus musculus; assay: Toxicity in C57/BL6 mouse assessed as body weight at 3000 mg/kg, po treated for 5 days measured at day 1 post last dose (reference value: 20.3 +/- 2.6 g); assay type: organism-based; conditions: in vivo, 120 h
[33] = tested on: Mus musculus; assay: Toxicity in C57/BL6 mouse assessed as body weight at 90 mg/kg, po treated for 5 days measured at day 9 post last dose (reference value: 20.7 +/- 2.9 g); assay type: organism-based; conditions: in vivo, 120 h
[34] = Drug level in C57/BL6 mouse heart at 3 mg/kg, iv after 3 hrs; assay type: ADME, organism-based; conditions: in vivo
[35] = tested on: Mus musculus; assay: Toxicity in C57/BL6 mouse assessed as body weight at 300 mg/kg, po treated for 5 days measured at day 8 post last dose (reference value: 20.6 +/- 2.8 g); assay type: organism-based; conditions: in vivo, 120 h
[36] = tested on: Mus musculus; assay: Toxicity in C57/BL6 mouse assessed as body weight at 3000 mg/kg, po treated for 5 days measured at day 7 post last dose (reference value: 20.6 +/- 2.9 g); assay type: organism-based; conditions: in vivo, 120 h
[37] = tested on: Mus musculus; assay: Toxicity in C57/BL6 mouse assessed as body weight at 300 mg/kg, po treated for 5 days measured at day 10 post last dose (reference value: 20.7 +/- 2.6 g); assay type: organism-based; conditions: in vivo, 120 h
[38] = tested on: Mus musculus; assay: Toxicity in C57/BL6 mouse assessed as body weight at 90 mg/kg, po treated for 5 days measured at day 5 post last dose (reference value: 20.3 +/- 2.8 g); assay type: organism-based; conditions: in vivo, 120 h
[39] = Drug level in C57/BL6 mouse heart at 30 mg/kg, po after 0.5 hrs; assay type: ADME, organism-based; conditions: in vivo
[40] = tested on: Mus musculus; assay: Toxicity in C57/BL6 mouse assessed as body weight at 3000 mg/kg, po treated for 5 days measured at day 3 post last dose (reference value: 19.8 +/- 2.5 g); assay type: organism-based; conditions: in vivo, 120 h
[41] = tested on: Mus musculus; assay: Toxicity in C57/BL6 mouse assessed as body weight at 3000 mg/kg, po treated for 5 days measured at day 2 post last dose (reference value: 19.8 +/- 2.3 g); assay type: organism-based; conditions: in vivo, 120 h
[42] = Drug level in C57/BL6 mouse heart at 3 mg/kg, iv after 0.25 hrs; assay type: ADME, organism-based; conditions: in vivo

Compound: CC(C)Oc1ccccc1C(=O)Nc1ccccc1C(=O)Nc1cccc(S(=O)(=O)C(F)(F)F)c1
- Activity [1]: 20.8 g
- Activity [2]: 20.1 g
- Activity [3]: Active
- Activity [4]: Non-Toxic
- Activity [5]: 21.1 g
- Activity [6]: Non-Toxic
- Activity [7]: 20.6 g
- Drug uptake [8]: 0.926 µmol/kg
- Activity [9]: 20.8 g
- Activity [10]: Active
- Drug uptake [11]: 4.12 µmol/kg
- Activity [12]: Active
- Drug uptake [13]: 1.041 µmol/kg
- Drug uptake [14]: 1.206 µmol/kg
- Activity [15]: 20.4 g
- Drug uptake [16]: 0.995 µmol/kg
- solubility kinetic [17]: 7 µM (≈ 3.55 µg/mL)
- Activity [18]: 20.9 g
- Activity [19]: 20.4 g
- Drug uptake [20]: 1.395 µmol/kg
- Activity [21]: Non-Toxic
- Activity [22]: Active
- Activity [23]: 19.9 g
- Activity [24]: Active
- Activity [25]: 20.7 g
- Drug uptake [26]: 0.256 µmol/kg
- Drug uptake [27]: 0.394 µmol/kg
- Activity [28]: 21.2 g
- Drug uptake [29]: 2.001 µmol/kg
- Activity [30]: 20 g
- Activity [31]: Non-Toxic
- Activity [32]: 20.6 g
- Activity [33]: 20.8 g
- Drug uptake [34]: 0.6 µmol/kg
- Activity [35]: 21.2 g
- Activity [36]: 21.2 g
- Activity [37]: 21.3 g
- Activity [38]: 20 g
- Drug uptake [39]: 1.428 µmol/kg
- Activity [40]: 20.6 g
- Activity [41]: 20.6 g
- Drug uptake [42]: 2.084 µmol/kg
